Measured values reported in patent US8575197B2, “Pyrolinone derivative and pharmaceutical composition comprising the same” (Shionogi & Co., Ltd., priority 2008, dated 2013).
pIC50: −log10 of the molar value.

Biological target: human P2X3 receptor (Homo sapiens (Human), UniProt P56373)
Experiment: P2X3 receptor inhibition, ATP-evoked Fluo-3 calcium fluorescence (FDSS 3000)
Type: cell-based
Details: C6BU-1 cell transfected with human P2X3 receptor gene; ATP-evoked Fluo-3 fluorescence
Protocol: Stably expressing cell line (C6BU-1 cell transfected with human P2X3 receptor gene (GenBank accession number Y07683)) was used. The cells were seeded in a 96-well microtiter plate at a concentration of 8000 cells/well and cultured in the medium (8.3% fetal bovine serum, 8.3% horse serum, 1% antibiotic and antifungal in DMEM) for one day at 37° C. under 5% carbon dioxide atmosphere. The medium was replaced with 4 μM Fluo-3-AM solution (pH7.5) containing 20 mM HEPES, 137 mM NaCl, 2.7 mM KCl, 0.9 mM MgCl2, 5.0 mM CaCl2, 5.6 mM D-glucose, 2.5 mM probenecid, 10% BSA, and 0.08% Pluronic F-127, and incubated at 37° C. under 5% dioxide carbon atmosphere for one hour. The plate was washed with washing buffer (20 mM HEPES, 137 mM NaCl, 2.7 mM KCl, 0.9 mM MgCl2, 5.0 mM CaCl2, 5.6 mM D-glucose, 2.5 mM probenecid, pH7.5), and each well was added with 40 μL of this buffer. The plate was placed in High-Throughput Screening System FDSS 3000 (Hamamatsu Photonics K.K.). Measurement of fluorescence intensity by FDSS 3000 was started, and 40 μL of DMSO solutions containing different concentrations of the test compound as prepared by dilution with dilution buffer (20 mM HEPES, 137 mM NaCl, 2.7 mM KCl, 0.9 mM MgCl2, 5.0 mM CaCl2, 5.6 mM D-glucose, 2.5 mM probenecid, 0.1% Pluronic F-127, pH7.5) were dispensed to each well through the built-in automatic dispenser. Five minutes after, 40 nM ATP solution (50 μL) prepared by dilution with the dilution buffer was dispensed through the built-in automatic dispenser, and the measurement of fluorescence intensity was continued for 3 min. For each well, the specific maximum fluorescence intensity was calculated as the ratio of the maximum fluorescence intensity after addition of the ATP solution to the fluorescence intensity at the starting of the measurement. […] FDSS software (Hamamatsu Photonics K.K.) was used for calculation of the specific maximum fluorescence intensity. IC50 was calculated using Microsoft™ Excel™ (Microsoft Corporation) and XLfit™ (ID Business Solutions Ltd.).

Chain of human P2X3 receptor (P56373 whole entry): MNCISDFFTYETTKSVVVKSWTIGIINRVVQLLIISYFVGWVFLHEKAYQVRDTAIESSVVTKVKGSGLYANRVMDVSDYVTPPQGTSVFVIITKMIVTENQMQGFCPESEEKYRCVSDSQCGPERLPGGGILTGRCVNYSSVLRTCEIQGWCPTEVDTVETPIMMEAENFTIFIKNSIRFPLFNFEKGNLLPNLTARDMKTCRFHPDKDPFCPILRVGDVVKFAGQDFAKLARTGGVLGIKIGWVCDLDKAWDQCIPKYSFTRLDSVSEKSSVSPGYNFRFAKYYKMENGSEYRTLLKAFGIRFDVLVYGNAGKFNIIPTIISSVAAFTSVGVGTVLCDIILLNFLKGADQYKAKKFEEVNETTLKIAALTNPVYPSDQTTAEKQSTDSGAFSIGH

| Structure (SMILES) | pIC50 |
| --- | --- |
| COC(=O)COc1ccccc1C1C(C(=O)C(C)(C)C)=C(O)C(=O)N1c1ccc(-c2cccs2)cc1 (stereo not shown) [Compound I-113] | 7.92 |
| COC(=O)COc1ccccc1C1C(C(=O)C(C)(C)C)=C(O)C(=O)N1c1ccc(-c2ccsc2)cc1 (stereo not shown) [Compound I-114] | 7.92 |
| COc1ncccc1C1C(C(=O)C(C)(C)C)=C(O)C(=O)N1c1ccc(-c2cccs2)cc1 (stereo not shown) [Compound I-115] | 6.97 |
| COc1ncccc1C1C(C(=O)C(C)(C)C)=C(O)C(=O)N1c1ccc(-c2ccsc2)cc1 (stereo not shown) [Compound I-116] | 7.11 |
| CC(C)(C)C(=O)C1=C(O)C(=O)N(c2ccc(-c3cccs3)cc2)C1c1ccccc1OCC(=O)O (stereo not shown) [Compound I-119] | 7.01 |
| COc1ncccc1C1C(C(=O)C(C)(C)C)=C(O)C(=O)N1c1ccc(-c2cccs2)nc1 (stereo not shown) [Compound I-122] | 6.47 |
| COCCOc1ccccc1C1C(C(=O)C(C)(C)C)=C(O)C(=O)N1c1ccc(-c2cccs2)cc1 (stereo not shown) [Compound I-123] | 7.89 |
| COCCOc1ccccc1C1C(C(=O)C(C)(C)C)=C(O)C(=O)N1c1ccc(-c2nc(C)no2)cc1 (stereo not shown) [Compound I-128] | 6.81 |
| COCCOc1ccccc1C1C(C(=O)C(C)(C)C)=C(O)C(=O)N1c1ccc(SC)cc1 (stereo not shown) [Compound I-130] | 6.32 |
| COCCOc1ncccc1C1C(C(=O)C(C)(C)C)=C(O)C(=O)N1c1ccc(-c2ccsc2)cc1 (stereo not shown) [Compound I-138] | 7.80 |
| Cc1ncccc1C1C(C(=O)C(C)(C)C)=C(O)C(=O)N1c1ccc(-c2cccs2)cc1 (stereo not shown) [Compound I-141] | 6.46 |
| Cc1ncccc1C1C(C(=O)C(C)(C)C)=C(O)C(=O)N1c1ccc(-c2ccco2)cc1 (stereo not shown) [Compound I-142] | 6.50 |
| Cc1ncccc1C1C(C(=O)C(C)(C)C)=C(O)C(=O)N1c1ccc(-c2ccsc2)cc1 (stereo not shown) [Compound I-143] | 6.48 |
| CNC(=O)COc1ccccc1C1C(C(=O)C(C)(C)C)=C(O)C(=O)N1c1ccc(-c2ccsc2)cc1 (stereo not shown) [Compound I-147] | 7.77 |
| COCCOc1ncccc1C1C(C(=O)C(C)(C)C)=C(O)C(=O)N1c1ccc(-c2cccs2)cc1 (stereo not shown) [Compound I-149] | 7.82 |
| COCCOc1ncccc1C1C(C(=O)C(C)(C)C)=C(O)C(=O)N1c1ccc(SC)cc1 (stereo not shown) [Compound I-150] | 6.38 |
| CC(C)(C)C(=O)C1=C(O)C(=O)N(c2ccc(-c3ccsc3)cc2)C1c1ccccc1OCC(N)=O (stereo not shown) [Compound I-151] | 8.10 |
| COCCOc1ccccc1C1C(C(=O)C(C)(C)C)=C(O)C(=O)N1c1ccc(-c2cc[nH]c2)cc1 (stereo not shown) [Compound I-153] | 6.67 |

| Structure (SMILES) | pIC50 |
| --- | --- |
| CC(C)(C)C(=O)C1=C(O)C(=O)N(c2ccc(-c3cc[nH]c3)cc2)C1c1ccccc1OCCO (stereo not shown) [Compound I-154] | 6.72 |
| CC(C)C(=O)C1=C(O)C(=O)N(c2ccc(-c3ccsc3)cc2)C1c1ccccc1OCCN(C)C (stereo not shown) [Compound I-157] | 7.60 |
| CC(C)C(=O)C1=C(O)C(=O)N(c2ccc(-c3ccsc3)cc2)C1c1ccccc1OCCN(C)C (stereo not shown) [Compound I-158] | 7.64 |
| COCCOc1ccccc1C1C(C(=O)C(C)C)=C(O)C(=O)N1c1ccc(-c2ccsc2)cc1 (stereo not shown) [Compound I-161] | 8.15 |
| COCc1ncccc1C1C(C(=O)C(C)(C)C)=C(O)C(=O)N1c1ccc(-c2ccsc2)cc1 (stereo not shown) [Compound I-162] | 7.39 |
| COCCOc1ncccc1C1C(C(=O)C(C)(C)C)=C(O)C(=O)N1c1ccc(-c2ccoc2)cc1 (stereo not shown) [Compound I-164] | 7.13 |
| CC(C)(C)C(=O)C1=C(O)C(=O)N(c2ccc(-c3ccoc3)cc2)C1c1cccnc1OCCO (stereo not shown) [Compound I-165] | 7.02 |
| CC(C)(C)C(=O)C1=C(O)C(=O)N(c2ccc(-c3ccsc3)cc2)C1c1cccnc1OCCO (stereo not shown) [Compound I-166] | 7.72 |
| COCCOCc1ncccc1C1C(C(=O)C(C)(C)C)=C(O)C(=O)N1c1ccc(-c2ccsc2)cc1 (stereo not shown) [Compound I-168] | 6.92 |
| COCCOc1ncccc1C1C(C(=O)C(C)C)=C(O)C(=O)N1c1ccc(-c2ccsc2)cc1 (stereo not shown) [Compound I-169] | 7.72 |
| CSc1ccc(N2C(=O)C(O)=C(C(=O)C(C)(C)C)C2c2cccnc2OCCO)cc1 (stereo not shown) [Compound I-171] | 6.21 |
| CC(C)(C)C(=O)C1=C(O)C(=O)N(c2ccc(-c3cccs3)cc2)C1c1cccnc1OCCO (stereo not shown) [Compound I-172] | 7.62 |
| CC(C)(C)C(=O)C1=C(O)C(=O)N(c2ccc(-c3ccco3)cc2)C1c1cccnc1OCCO (stereo not shown) [Compound I-173] | 6.86 |
| COCCOc1ncccc1C1C(C(=O)C(C)C)=C(O)C(=O)N1c1ccc(-c2noc(C)n2)cc1 (stereo not shown) [Compound I-174] | 6.24 |
| CC(C)C(=O)C1=C(O)C(=O)N(c2ccc(-c3ccsc3)cc2)C1c1cccnc1OCCO (stereo not shown) [Compound I-176] | 7.34 |
| Cc1nc(-c2ccc(N3C(=O)C(O)=C(C(=O)C(C)C)C3c3cccnc3OCCO)cc2)no1 (stereo not shown) [Compound I-178] | 6.43 |
| CC(C)(C)C(=O)C1=C(O)C(=O)N(c2ccc(-c3ccsc3)cc2)C1c1ccccc1OCC#N (stereo not shown) [Compound I-180] | 8.30 |
| COC(=O)COCc1ncccc1C1C(C(=O)C(C)(C)C)=C(O)C(=O)N1c1ccc(-c2ccsc2)cc1 (stereo not shown) [Compound I-181] | 6.94 |

Second part, the compound after the results:

| pIC50 | Structure (SMILES) |
| --- | --- |
| 6.42 | COc1ncccc1C1C(C(=O)C(C)(C)C)=C(O)C(=O)N1c1ccc(-c2ccco2)cc1 (stereo not shown) [Compound I-117] |
| 6.55 | COc1ncccc1C1C(C(=O)C(C)(C)C)=C(O)C(=O)N1c1ccc(-c2ccoc2)cc1 (stereo not shown) [Compound I-118] |
| 6.96 | COc1ccc(C(=O)C2=C(O)C(=O)N(c3nc4cc(OC)ccc4s3)C2c2ccccc2OCCO)cc1 (stereo not shown) [Compound I-125] |
| 7.82 | COc1ccc(C(=O)C2=C(O)C(=O)N(c3nc4ccc(OC)cc4s3)C2c2ccccc2OCCO)cc1 (stereo not shown) [Compound I-126] |
| 7.04 | COCCOc1ccccc1C1C(C(=O)C(C)(C)C)=C(O)C(=O)N1c1ccc(-c2noc(C)n2)cc1 (stereo not shown) [Compound I-129] |
| 6.60 | COc1ccc(C(=O)C2=C(O)C(=O)N(c3ccc(-c4ccon4)cc3)C2c2ccc(Br)cc2OC)cc1 (stereo not shown) [Compound I-131] |
| 7.37 | COCCOc1ccccc1C1C(C(=O)C(C)(C)C)=C(O)C(=O)N1c1ccc(-c2ccco2)cc1 (stereo not shown) [Compound I-132] |
| 6.44 | COC(=O)COc1ccccc1C1C(C(=O)C(C)(C)C)=C(O)C(=O)N1c1ccc(-c2ccon2)cc1 (stereo not shown) [Compound I-133] |
| 6.11 | CC(C)(C)C(=O)C1=C(O)C(=O)N(c2ccc(-c3ccon3)cc2)C1c1ccccc1OCC(=O)O (stereo not shown) [Compound I-134] |
| 6.21 | CN(C)CCOc1ccccc1C1C(C(=O)C(C)(C)C)=C(O)C(=O)N1c1ccc(-c2ccon2)cc1 (stereo not shown) [Compound I-137] |
| 6.03 | COCCOc1ncccc1C1C(C(=O)C(C)(C)C)=C(O)C(=O)N1c1ccc(-c2ccon2)cc1 (stereo not shown) [Compound I-139] |
| 6.44 | CC(C)(C)C(=O)C1=C(O)C(=O)N(c2ccc(-c3ccon3)cc2)C1c1ccccc1OCC(N)=O (stereo not shown) [Compound I-144] |
| 6.14 | CNC(=O)COc1ccccc1C1C(C(=O)C(C)(C)C)=C(O)C(=O)N1c1ccc(-c2ccon2)cc1 (stereo not shown) [Compound I-146] |
| 6.66 | C[S+]([O-])CCOc1ccccc1C1C(C(=O)C(C)(C)C)=C(O)C(=O)N1c1ccc(-c2ccon2)cc1 (stereo not shown) [Compound I-152] |
| 7.49 | COCCOc1ccccc1C1C(C(=O)C(C)(C)C)=C(O)C(=O)N1c1ccc(-c2ccoc2)cc1 (stereo not shown) [Compound I-156] |
| 6.18 | CC(C)C(=O)C1=C(O)C(=O)N(c2ccc(-c3ccon3)cc2)C1c1cccnc1OCCO (stereo not shown) [Compound I-179] |
